This is an account of results in patent publication US4963538A, “5-oxygenated HMG-CoA reductase inhibitors” (Merck & Co., Inc., priority 1989, dated 1990).

Each structure is given as a SMILES string.

The target of the experiment is T1, HMG-CoA reductase (Rattus norvegicus, UniProt P51639).
T1 sequence (P51639 1-887): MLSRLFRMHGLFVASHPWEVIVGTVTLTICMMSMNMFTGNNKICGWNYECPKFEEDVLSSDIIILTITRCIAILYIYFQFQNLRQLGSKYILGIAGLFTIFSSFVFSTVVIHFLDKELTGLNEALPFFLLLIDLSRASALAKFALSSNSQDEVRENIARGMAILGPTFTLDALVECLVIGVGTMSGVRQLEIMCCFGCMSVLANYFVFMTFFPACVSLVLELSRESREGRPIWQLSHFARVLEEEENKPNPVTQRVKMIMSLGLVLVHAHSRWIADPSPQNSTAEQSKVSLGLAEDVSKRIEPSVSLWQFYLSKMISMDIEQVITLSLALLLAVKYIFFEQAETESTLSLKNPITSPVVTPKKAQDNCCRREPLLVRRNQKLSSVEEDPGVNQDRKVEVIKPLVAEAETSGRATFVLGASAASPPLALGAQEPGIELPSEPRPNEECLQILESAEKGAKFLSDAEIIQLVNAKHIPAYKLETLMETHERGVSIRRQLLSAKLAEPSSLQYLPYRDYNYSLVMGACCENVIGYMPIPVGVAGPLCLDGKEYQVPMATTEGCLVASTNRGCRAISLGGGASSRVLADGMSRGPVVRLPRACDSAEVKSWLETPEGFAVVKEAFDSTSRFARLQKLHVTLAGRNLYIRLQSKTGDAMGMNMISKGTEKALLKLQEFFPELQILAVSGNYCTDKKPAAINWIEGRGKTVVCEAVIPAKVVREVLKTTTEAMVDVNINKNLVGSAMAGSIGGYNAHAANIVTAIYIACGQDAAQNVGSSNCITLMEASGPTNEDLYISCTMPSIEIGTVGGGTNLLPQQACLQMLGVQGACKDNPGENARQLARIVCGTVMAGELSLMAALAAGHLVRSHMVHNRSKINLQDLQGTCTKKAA
Nature of the experiment: intrinsic HMG-CoA reductase inhibition, in vitro protocol of J. Med. Chem., 28, p. 347-358 (1985). Type of experiment: biochemical. Particulars: compactin (mevastatin) assigned 100; IC50 of test compound compared with that of compactin determined simultaneously. On the procedure:
The intrinsic HMG-CoA reductase inhibition activity of the claimed compounds is measured in the in vitro protocol published in J. Med. Chem., 28, p. 347-358 (1985).
For estimation of relative inhibitory potencies, compactin (i.e., mevastatin) was assigned a value of 100 and the IC50 value of the test compound was compared with that of compactin determined simultaneously in the published in vitro protocol.
`CCC(C)(C)C(=O)O[C@H]1C[C@@H](C)[C@@H](OC(=O)NCc2ccccc2)[C@@H]2CC[C@H](C)[C@H](CC[C@@H]3C[C@@H](O)CC(=O)O3)[C@H]21` [6(R)-[2-[8(S) (2,2-dimethylbutyryloxy)-2(S)methyl 5(R)-benzylaminocarbonyloxy-6(R)-methyl-1,2,3,4,4a(R)-,5,6,7,8,8a(R)-decahydronaphthyl-1(S)]ethyl]-4-(R)-hydroxy-3,4,5,6-tetrahydro-2H-pyran-2-one]: the “Relative Potency” value came to 360.

On to `CCC(C)(C)C(=O)O[C@H]1C[C@@H](C)[C@@H](OCCc2ccccc2)[C@@H]2CC[C@H](C)[C@H](CC[C@@H]3C[C@@H](O)CC(=O)O3)[C@H]21` [6(R)-[2-[8(S)-(2,2-dimethylbutyryloxy)-2(S)-methyl-5(R)-(1-phenylethyl-2-oxy)-6(R)-methyl-1,2,3,4,4a(R)-,5,6,7,8, 8a(R)-decahydronaphthyl-1(S)]ethyl]-4(R)-hydroxy-3,4,5,6-tetrahydro-2H-pyran-2-one], for which the “Relative Potency” value is 300.

Take `CCC(C)(C)C(=O)O[C@H]1C[C@@H](C)[C@@H](OP(=O)(c2ccccc2)c2ccccc2)[C@@H]2CC[C@H](C)[C@H](CC[C@@H]3C[C@@H](O)CC(=O)O3)[C@H]21` [6(R)-[2-[8(S)-(2,2-dimethylbutyryloxy)-2(S)-methyl-5(R)-diphenylphosphinyloxy-6(R)-methyl-1,2,3,4,4a(R),5,6,7,8,8a(R)-decahydronaphthyl-1(S)]ethyl]-4(R)-hydroxy-3,4,5,6-tetrahydro-2H-pyran-2-one]: the “Relative Potency” value turned out to be 300.

As for `CCC(C)(C)C(=O)O[C@H]1C[C@@H](C)[C@@H](O)[C@@H]2CC[C@H](C)[C@H](CC[C@@H]3C[C@@H](O)CC(=O)O3)[C@H]21` [6(R)-[2-[8(S)-(2,2-dimethylbutyryloxy)-2(S)-methyl-5(R)-hydroxy-6(R)-methyl-1,2,3,4,4a(R),6,7,8,8a(R)-decahydronapththyl-1(S)]ethyl]-4(R)-hydroxy-3,4,5,6-tetrahydro-2H-pyran-2-one], the “Relative Potency” value is recorded as 50.

Consider `CCC(C)(C)C(=O)O[C@H]1C[C@@H](C)[C@@H](O)[C@@H]2C=C[C@H](C)[C@H](CC[C@@H]3C[C@@H](O)CC(=O)O3)[C@H]21` [6(R)-[2-[8(S)-(2,2-dimethylbutyryloxy)-2(S)-methyl-5(R)-hydroxy-6(R)-methyl-1,2,4a(R),5,6,7,8,8a(R)-octahydronaphthyl-1(S)]ethyl]-4(R)-hydroxy-3,4,5,6-tetrahydro-2H-pyran-2-one], for which the “Relative Potency” value amounted to 100.

With `CCC(C)(C)C(=O)O[C@H]1C[C@H](C)[C@@H](O)[C@@H]2CC[C@H](C)[C@H](CC[C@@H]3C[C@@H](O)CC(=O)O3)[C@H]21` [6(R)-[2-[8(S)-(2,2-dimethylbutyryloxy)-2(S)-methyl-5(R)-hydroxy-6(S)-methyl-1,2,3,4,4a(R)-,6,7,8,8a(R)-decahydronaphthyl-1(S)]ethyl]-4(R)-hydroxy-3,4,5,6-tetrahydro-2H-pyran-2-one], the “Relative Potency” value is given as 99.6.

For the compound `CCC(C)(C)C(=O)O[C@H]1C[C@H](C)[C@H](O)[C@@H]2CC[C@H](C)[C@H](CC[C@@H]3C[C@@H](O)CC(=O)O3)[C@H]21` [6(R)-[2-[8(S)-(2,2-dimethylbutyryloxy)-2(S)-methyl-5(S)-hydroxy-6(S)-methyl-1,2,3,4,4a-(R)-,6,7,8,8a(R)-decahydronaphthyl-1(S)]ethyl]-4(R)-hydroxy-3,4,5,6-tetrahydro-2H-pyran-2-one], the “Relative Potency” value amounted to 11.1.

In the case of `CCC(C)(C)C(=O)O[C@H]1C[C@@H](C)C(=O)[C@@H]2CC[C@H](C)[C@H](CC[C@@H]3C[C@@H](O)CC(=O)O3)[C@@H]12` [6(R)-[2-[8(S)-(2,2-dimethylbutyryloxy)-2(S)-methyl-5-oxo-6(R)-methyl-1,2,3,4,4a(R)-,6,7,8,8a(R)-nonanydronaphthyl-1(S)]ethyl]-4(R)-hydroxy-3,4,5,6-tetrahydro-2H-pyran-2-one], the “Relative Potency” value turned out to be 125.

Regarding `CCC(C)(C)C(=O)O[C@H]1C[C@@H](C)[C@@H](OC(=O)N(Cc2ccccc2)Cc2ccccc2)[C@@H]2CC[C@H](C)[C@H](CC[C@@H]3C[C@@H](O)CC(=O)O3)[C@H]21` [6(R)-[2-[8(S)-(2,2-dimethylbutyryloxyl)-2(S)-methyl-5(R)-dibenzylaminocarbonyloxy-6(R)-methyl-1,2,3,4,4a(R)-,5,6,7,8,8a(R)-decahydronaphthyl-1(S)]ethyl]-4(R)-hydroxy-3,4,5,6-tetrahydro-2H-pyran-2-one], the “Relative Potency” value came out at 94.
